Columns and labels:
Assay in all cases: biochemical
Design in all cases: KINOMEscan active-site competition binding panel (468 kinase assays), per cent of control at 1000 nM
Details in all cases: KINOMEscan per cent of control (binding competition); read-out: Percent Control
EPHA3 = EPHA3 (Homo sapiens, UniProt P29320)
Description: (§1) Figure S7 / Percent Control

SIK = target: T1, SIK (Homo sapiens, UniProt P57059)
T1 construct: gene SIK1
Description: as §1

FLT4 = FLT4 (Homo sapiens, UniProt P35916)
Description: as §1

MLK1 = target: T2, MLK1 (Homo sapiens, UniProt P80192)
T2 construct: gene MAP3K9
Description: as §1

AURKB = AURKB (Homo sapiens, UniProt Q96GD4)
Sequence of AURKB (Q96GD4 whole entry): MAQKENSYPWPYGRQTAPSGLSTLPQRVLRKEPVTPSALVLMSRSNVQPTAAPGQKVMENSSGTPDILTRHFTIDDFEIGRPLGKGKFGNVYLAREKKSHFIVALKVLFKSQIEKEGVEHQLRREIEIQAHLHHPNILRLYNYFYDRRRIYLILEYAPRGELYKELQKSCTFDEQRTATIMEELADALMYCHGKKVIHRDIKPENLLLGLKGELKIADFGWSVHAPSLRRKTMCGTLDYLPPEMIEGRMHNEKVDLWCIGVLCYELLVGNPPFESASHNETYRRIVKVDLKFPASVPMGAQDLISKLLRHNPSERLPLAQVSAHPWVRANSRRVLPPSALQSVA
Description: as §1

ABL1-nonphosphorylated = target: T3, ABL1-nonphosphorylated (Homo sapiens, UniProt P00519)
T3 construct: nonphosphorylated
T3 sequence (P00519 whole entry): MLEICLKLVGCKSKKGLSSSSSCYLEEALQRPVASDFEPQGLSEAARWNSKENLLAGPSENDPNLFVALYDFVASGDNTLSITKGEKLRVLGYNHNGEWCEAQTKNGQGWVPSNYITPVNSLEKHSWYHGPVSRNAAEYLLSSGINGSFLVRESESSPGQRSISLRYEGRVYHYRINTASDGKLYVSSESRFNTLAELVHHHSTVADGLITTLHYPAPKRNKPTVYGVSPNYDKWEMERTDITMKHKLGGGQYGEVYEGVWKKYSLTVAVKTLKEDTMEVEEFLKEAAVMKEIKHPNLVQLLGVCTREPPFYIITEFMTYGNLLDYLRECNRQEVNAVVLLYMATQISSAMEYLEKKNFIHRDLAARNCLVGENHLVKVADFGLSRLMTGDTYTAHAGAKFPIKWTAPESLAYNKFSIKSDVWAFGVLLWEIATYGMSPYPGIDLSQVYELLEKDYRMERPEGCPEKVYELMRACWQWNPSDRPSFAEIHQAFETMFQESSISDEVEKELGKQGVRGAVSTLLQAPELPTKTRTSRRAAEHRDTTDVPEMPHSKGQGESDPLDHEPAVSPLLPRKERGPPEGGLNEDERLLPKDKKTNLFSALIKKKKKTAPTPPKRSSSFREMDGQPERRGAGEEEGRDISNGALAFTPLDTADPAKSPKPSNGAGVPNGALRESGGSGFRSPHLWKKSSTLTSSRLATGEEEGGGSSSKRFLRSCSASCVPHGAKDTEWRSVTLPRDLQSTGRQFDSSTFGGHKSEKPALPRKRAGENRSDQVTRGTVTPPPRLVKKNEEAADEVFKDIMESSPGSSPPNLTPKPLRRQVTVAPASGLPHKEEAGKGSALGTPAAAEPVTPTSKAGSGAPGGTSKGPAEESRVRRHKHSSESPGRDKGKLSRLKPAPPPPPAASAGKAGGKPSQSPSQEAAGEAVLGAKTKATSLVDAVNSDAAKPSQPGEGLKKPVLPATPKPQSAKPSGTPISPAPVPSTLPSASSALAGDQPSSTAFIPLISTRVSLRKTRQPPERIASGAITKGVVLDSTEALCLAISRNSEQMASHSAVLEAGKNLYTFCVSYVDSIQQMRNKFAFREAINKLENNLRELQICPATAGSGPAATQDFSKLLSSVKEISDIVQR
Description: as §1

EPHA7 = EPHA7 (Homo sapiens, UniProt Q15375)
Description: as §1

PKAC-alpha = target: T4, PKAC-alpha (Homo sapiens, UniProt P17612)
T4 construct: gene PRKACA
Description: as §1

DLK = target: T5, DLK (Homo sapiens, UniProt Q12852)
T5 construct: gene MAP3K12
Description: as §1

QSK = target: T6, QSK (Homo sapiens, UniProt Q9Y2K2)
T6 construct: gene SIK3
Description: as §1

CAMK1D = CAMK1D (Homo sapiens, UniProt Q8IU85)
Sequence of CAMK1D (Q8IU85 whole entry): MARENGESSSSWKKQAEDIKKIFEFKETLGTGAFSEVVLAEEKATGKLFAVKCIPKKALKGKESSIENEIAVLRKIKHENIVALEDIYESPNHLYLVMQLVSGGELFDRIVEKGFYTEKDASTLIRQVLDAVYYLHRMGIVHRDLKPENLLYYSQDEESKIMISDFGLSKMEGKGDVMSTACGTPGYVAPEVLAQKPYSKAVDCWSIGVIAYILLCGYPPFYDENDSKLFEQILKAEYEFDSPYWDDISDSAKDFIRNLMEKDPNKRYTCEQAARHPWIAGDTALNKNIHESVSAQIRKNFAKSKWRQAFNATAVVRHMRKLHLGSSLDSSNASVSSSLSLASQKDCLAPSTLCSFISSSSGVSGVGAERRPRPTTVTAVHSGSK
Description: as §1

TNNI3K = TNNI3K (Homo sapiens, UniProt Q59H18)
Description: as §1

EPHB2 = EPHB2 (Homo sapiens, UniProt P29323)
Description: as §1

NEK2 = NEK2 (Homo sapiens, UniProt P51955)
Sequence of NEK2 (P51955 whole entry): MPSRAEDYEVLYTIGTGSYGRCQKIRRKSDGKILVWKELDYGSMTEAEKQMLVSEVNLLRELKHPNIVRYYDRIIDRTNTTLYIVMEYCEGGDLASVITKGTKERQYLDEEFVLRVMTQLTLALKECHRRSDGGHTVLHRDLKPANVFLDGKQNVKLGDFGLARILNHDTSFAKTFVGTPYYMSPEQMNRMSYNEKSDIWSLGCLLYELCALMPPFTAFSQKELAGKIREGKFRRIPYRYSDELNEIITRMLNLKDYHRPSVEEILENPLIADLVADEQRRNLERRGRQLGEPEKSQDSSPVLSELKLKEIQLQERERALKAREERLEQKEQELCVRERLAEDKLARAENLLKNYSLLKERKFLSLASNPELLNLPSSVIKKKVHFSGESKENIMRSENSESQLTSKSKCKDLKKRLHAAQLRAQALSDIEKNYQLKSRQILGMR
Description: as §1

PRKCH = PRKCH (Homo sapiens, UniProt P24723)
Description: as §1

LATS2 = LATS2 (Homo sapiens, UniProt Q9NRM7)
Description: as §1

INSRR = INSRR (Homo sapiens, UniProt P14616)
Sequence of INSRR (P14616 whole entry): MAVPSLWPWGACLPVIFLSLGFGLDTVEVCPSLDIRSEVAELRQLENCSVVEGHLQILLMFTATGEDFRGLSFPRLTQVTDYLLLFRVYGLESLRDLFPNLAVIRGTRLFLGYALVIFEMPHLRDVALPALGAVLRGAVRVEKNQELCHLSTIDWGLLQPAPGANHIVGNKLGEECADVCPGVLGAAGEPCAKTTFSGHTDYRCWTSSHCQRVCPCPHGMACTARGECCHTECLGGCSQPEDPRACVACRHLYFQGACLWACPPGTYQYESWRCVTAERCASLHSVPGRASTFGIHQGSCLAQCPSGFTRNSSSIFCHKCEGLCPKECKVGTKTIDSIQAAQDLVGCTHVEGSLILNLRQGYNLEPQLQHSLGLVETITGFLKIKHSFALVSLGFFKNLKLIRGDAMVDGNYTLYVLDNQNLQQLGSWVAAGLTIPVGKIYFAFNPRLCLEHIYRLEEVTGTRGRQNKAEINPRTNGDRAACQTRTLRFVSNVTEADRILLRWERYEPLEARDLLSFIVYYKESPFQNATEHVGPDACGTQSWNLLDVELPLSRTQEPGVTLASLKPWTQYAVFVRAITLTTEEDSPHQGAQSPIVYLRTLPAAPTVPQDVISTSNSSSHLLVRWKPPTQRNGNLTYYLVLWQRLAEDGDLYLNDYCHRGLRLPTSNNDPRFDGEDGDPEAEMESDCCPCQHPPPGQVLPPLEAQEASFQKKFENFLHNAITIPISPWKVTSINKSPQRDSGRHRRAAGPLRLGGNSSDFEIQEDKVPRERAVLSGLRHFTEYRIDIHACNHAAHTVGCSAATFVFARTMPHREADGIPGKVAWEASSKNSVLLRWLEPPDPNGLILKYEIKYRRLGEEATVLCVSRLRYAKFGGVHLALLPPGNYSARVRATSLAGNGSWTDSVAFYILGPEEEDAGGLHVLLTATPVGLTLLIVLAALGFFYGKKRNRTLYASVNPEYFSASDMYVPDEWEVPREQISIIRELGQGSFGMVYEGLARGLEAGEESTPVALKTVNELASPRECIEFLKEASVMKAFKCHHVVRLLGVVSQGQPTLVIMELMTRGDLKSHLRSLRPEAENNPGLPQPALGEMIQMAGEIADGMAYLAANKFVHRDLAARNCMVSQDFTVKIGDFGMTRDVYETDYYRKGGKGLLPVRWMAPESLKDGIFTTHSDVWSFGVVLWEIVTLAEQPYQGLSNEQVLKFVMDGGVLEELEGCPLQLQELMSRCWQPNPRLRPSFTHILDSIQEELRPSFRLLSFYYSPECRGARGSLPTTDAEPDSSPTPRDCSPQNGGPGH
Description: as §1

RIPK4 = RIPK4 (Homo sapiens, UniProt P57078)
Description: as §1

[1] = target: T7, RSK1(Kin.Dom.1-N-terminal) (Homo sapiens, UniProt Q15418)
T7 construct: gene RPS6KA1; Kin.Dom.1-N-terminal
Description: as §1

GRK2 = GRK2 (Homo sapiens, UniProt P25098)
Description: as §1

CDK4-cyclinD1 = target: T8, CDK4-cyclinD1 (Homo sapiens, UniProt P11802)
T8 construct: cyclinD1
Description: as §1

PIK3CA(Q546K) = PIK3CA(Q546K) (Homo sapiens, UniProt P42336, Q546K)
Sequence of PIK3CA(Q546K) (P42336 whole entry Q546K): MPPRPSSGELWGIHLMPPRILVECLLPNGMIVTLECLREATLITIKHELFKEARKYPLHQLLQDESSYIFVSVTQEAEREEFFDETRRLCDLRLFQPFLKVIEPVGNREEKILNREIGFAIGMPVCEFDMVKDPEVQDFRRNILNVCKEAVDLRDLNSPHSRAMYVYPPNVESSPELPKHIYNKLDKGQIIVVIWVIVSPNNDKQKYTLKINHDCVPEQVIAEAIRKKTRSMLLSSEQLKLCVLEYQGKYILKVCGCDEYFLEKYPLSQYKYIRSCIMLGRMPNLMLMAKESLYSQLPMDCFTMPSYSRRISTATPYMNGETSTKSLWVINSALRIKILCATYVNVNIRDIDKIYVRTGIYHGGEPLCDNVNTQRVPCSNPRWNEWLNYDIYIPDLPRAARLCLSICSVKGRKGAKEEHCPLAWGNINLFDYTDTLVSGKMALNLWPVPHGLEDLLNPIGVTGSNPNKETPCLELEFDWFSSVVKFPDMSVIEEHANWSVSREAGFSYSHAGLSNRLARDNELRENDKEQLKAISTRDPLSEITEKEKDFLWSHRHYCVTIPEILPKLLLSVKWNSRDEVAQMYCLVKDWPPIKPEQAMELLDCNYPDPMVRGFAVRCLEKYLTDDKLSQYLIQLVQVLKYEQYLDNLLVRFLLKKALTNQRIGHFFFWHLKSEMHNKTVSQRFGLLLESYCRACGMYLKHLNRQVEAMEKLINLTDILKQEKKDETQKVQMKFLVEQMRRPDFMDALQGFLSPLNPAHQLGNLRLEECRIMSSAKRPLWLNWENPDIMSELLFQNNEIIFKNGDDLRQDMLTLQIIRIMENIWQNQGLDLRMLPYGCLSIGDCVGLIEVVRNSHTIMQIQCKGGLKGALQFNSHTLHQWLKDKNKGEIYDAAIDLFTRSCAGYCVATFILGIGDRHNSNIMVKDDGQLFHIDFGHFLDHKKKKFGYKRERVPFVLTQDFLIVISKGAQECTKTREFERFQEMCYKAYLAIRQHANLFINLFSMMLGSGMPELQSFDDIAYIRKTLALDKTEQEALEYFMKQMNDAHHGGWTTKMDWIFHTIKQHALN
Description: as §1

FGFR4 = FGFR4 (Homo sapiens, UniProt P22455)
Description: as §1

CDK9 = CDK9 (Homo sapiens, UniProt P50750)
Sequence of CDK9 (P50750 whole entry): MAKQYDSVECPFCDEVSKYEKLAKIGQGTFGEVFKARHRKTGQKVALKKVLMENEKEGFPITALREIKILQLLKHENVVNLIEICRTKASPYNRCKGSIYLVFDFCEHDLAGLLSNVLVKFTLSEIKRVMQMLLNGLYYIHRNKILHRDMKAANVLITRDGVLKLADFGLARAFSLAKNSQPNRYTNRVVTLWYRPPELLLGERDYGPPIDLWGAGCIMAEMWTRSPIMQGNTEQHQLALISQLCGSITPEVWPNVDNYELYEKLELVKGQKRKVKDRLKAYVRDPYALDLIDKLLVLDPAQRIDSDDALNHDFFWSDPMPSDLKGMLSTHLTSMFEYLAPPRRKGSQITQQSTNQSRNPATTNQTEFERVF
Description: as §1

PIK3C2B = PIK3C2B (Homo sapiens, UniProt O00750)
Description: as §1

Which remaining binding at 1 µM (EPHA3) does the source give for `Cn1c(=O)[nH]c2ccc(-c3cccc(C(=O)NC4CCn5ccnc5C4)c3)cc21` (stereo not shown) [Z36-MP5] here?
The remaining binding at 1 µM was 93%.

What about the remaining binding at 1 µM (SIK) of the same molecule?
Its remaining binding at 1 µM is 81%.

And the remaining binding at 1 µM (FLT4)?
The remaining binding at 1 µM was 80%.

What about the remaining binding at 1 µM (MLK1) of the same molecule?
Its remaining binding at 1 µM is 98%.

And the remaining binding at 1 µM (AURKB)?
Its remaining binding at 1 µM is 84%.

What about the remaining binding at 1 µM (ABL1-nonphosphorylated) of the same molecule?
Its remaining binding at 1 µM is 91%.

What about the remaining binding at 1 µM (EPHA7) of the same molecule?
The remaining binding at 1 µM was 93%.

And the remaining binding at 1 µM (PKAC-alpha)?
The remaining binding at 1 µM was 85%.

And the remaining binding at 1 µM (DLK)?
Its remaining binding at 1 µM is 62%.

What about the remaining binding at 1 µM (QSK) of the same molecule?
The remaining binding at 1 µM was 63%.

And the remaining binding at 1 µM (CAMK1D)?
Its remaining binding at 1 µM is 61%.

And the remaining binding at 1 µM (TNNI3K)?
The remaining binding at 1 µM was 96%.

What about the remaining binding at 1 µM (EPHB2) of the same molecule?
Its remaining binding at 1 µM is 70%.

What about the remaining binding at 1 µM (NEK2) of the same molecule?
The remaining binding at 1 µM was 100%.

What about the remaining binding at 1 µM (PRKCH) of the same molecule?
The remaining binding at 1 µM was 52%.

And the remaining binding at 1 µM (LATS2)?
The remaining binding at 1 µM was 95%.

And the remaining binding at 1 µM (INSRR)?
The remaining binding at 1 µM was 86%.

What about the remaining binding at 1 µM (RIPK4) of the same molecule?
The remaining binding at 1 µM was 99%.

What about the remaining binding at 1 µM [1] of the same molecule?
Its remaining binding at 1 µM is 93%.

What about the remaining binding at 1 µM (GRK2) of the same molecule?
The remaining binding at 1 µM was 83%.

And the remaining binding at 1 µM (CDK4-cyclinD1)?
Its remaining binding at 1 µM is 67%.

What about the remaining binding at 1 µM (PIK3CA(Q546K)) of the same molecule?
The remaining binding at 1 µM was 54%.

And the remaining binding at 1 µM (FGFR4)?
The remaining binding at 1 µM was 76%.

And the remaining binding at 1 µM (CDK9)?
Its remaining binding at 1 µM is 37%.

What about the remaining binding at 1 µM (PIK3C2B) of the same molecule?
The remaining binding at 1 µM was 87%.

Reference: article PMC10924921, “Mi-2β promotes immune evasion in melanoma by activating EZH2 methylation” (Nature Communications, 2024)
